For one series, the system named is MT4. Briefly: Cytotoxicity against mock infected human MT4 cells by MTT assay. In kind it is toxicity, cell-based. A general note: Formazan colour is commonly taken as a measure of viable cells.
Series [1] has as its system Human immunodeficiency virus 1. Briefly: Antiviral activity against HIV-1 3B infected in human MT4 cells assessed as protection against virus-induced cytopathic effect by MTT assay. Format: functional, organism-based. To be noted: Human immunodeficiency virus 1, 3B.
Series [2] deals with Human immunodeficiency virus 1. As to the kind of experiment: Antiviral activity against HIV-1 NL4-3 Env-deficient pseudotype virus infected in U87/CD4/CCR5 cells assessed as reduction in viral infection in late stage measured after 48 hrs by luciferase activity based single-round infection assay. In kind it is functional, organism-based.
For series [3], the system named is Human immunodeficiency virus 1. As to the kind of experiment: Antiviral activity against HIV-1 NL4-3 Env-deficient pseudotype virus infected in U87/CD4/CCR5 cells assessed as reduction in viral infection in early stage measured after 48 hrs by luciferase activity based single-round infection assay. Format: functional, organism-based.
Series [4] is described as follows: Metabolic stability in human plasma assessed as parent compound remaining measured after 120 mins by LC-MS/MS analysis. In kind it is ADME, cell-free. To be noted: 2 h.
The next series is described as follows: in vitro. To be noted: human, liver microsomes. A general note: Liver microsomes are vesicles of endoplasmic reticulum, rich in cytochrome P450 enzymes.

SMILES strings stand for the structures. Calls of active or inactive are those of the source. The rule behind the calls is not given here.

Take `CN(C(=O)[C@H](Cc1ccccc1)NC(=O)c1cccc(C(=O)Nc2ccc(OC(F)(F)F)cc2)c1)c1ccc2scnc2c1`: in the series on MT4, half-maximal cytotoxicity (CC50) was put at 118 µM. Also, in series [1], the EC50 (commonly the concentration at which the effect is half-maximal) stood at 34.9 µM. The corresponding values for `CN(C(=O)[C@H](Cc1ccccc1)NC(=O)c1cccc(C(=O)Nc2ccc(C(F)(F)F)cc2)c1)c1ccc2scnc2c1` are 88.2 µM and at least 39.5 µM.

As for `COc1ccc(NC(=O)c2cccc(C(=O)N[C@@H](Cc3ccccc3)C(=O)N(C)c3ccc4scnc4c3)c2)cc1`, in the series with MT4, the 50% cytotoxic concentration (CC50) (usually the concentration giving 50% cytotoxicity) was above 222 µM. The EC50 in series [1] is at least 205 µM. Taken in the same sequence, the figures for `CN(C(=O)[C@H](Cc1ccccc1)NC(=O)c1cccc(C(=O)Nc2cccc(F)c2)c1)c1ccc2scnc2c1` were above 226 µM and above 226 µM. Taken in the same sequence, the figures for `CN(C(=O)[C@H](Cc1ccccc1)NC(=O)c1cccc(C(=O)Nc2ccc(Br)cc2)c1)c1ccc2scnc2c1` were above 204 µM and at least 186 µM. `CN(C(=O)[C@H](Cc1ccccc1)NC(=O)c1cccc(C(=O)N2CCN(C(=O)OC(C)(C)C)CC2)c1)c1ccc2scnc2c1` came in with a CC50 with MT4 of 93.9 µM. Also, the EC50 in series [1] worked out at 13.5 µM. Regarding `CN(C(=O)[C@H](Cc1ccccc1)NC(=O)c1cccc(C(=O)Nc2ccc(N)cc2)c1)c1ccc2scnc2c1`, the result in series [2] and in series [3] was Active. In addition, the Stability result in series [4] is “Stable”. In addition, the EC50 in series [1] was 3.57 µM.

For `CN(C(=O)[C@H](Cc1ccccc1)NC(=O)c1cccc(C(=O)Nc2ccccc2NC(=O)OC(C)(C)C)c1)c1ccc2scnc2c1`, the half-maximal cytotoxic concentration (CC50) in the series on MT4 was above 193 µM.

`CN(C(=O)[C@H](Cc1ccccc1)NC(=O)c1cccc(C(=O)Nc2ccccc2N)c1)c1ccc2scnc2c1`: half-maximal cytotoxicity with MT4 (CC50) was put at 25.4 µM. The half-maximal effective concentration (EC50) in series [1] is above 25.4 µM. Taken in the same sequence, the figures for `CN(C(=O)[C@H](Cc1ccccc1)NC(=O)c1cccc(C(=O)Nc2ccccc2F)c1)c1ccc2scnc2c1` were 66.4 µM and 21.9 µM.

On to `CN(C(=O)[C@H](Cc1ccccc1)NC(=O)c1cccc(C(=O)Nc2cccc(N)c2)c1)c1ccc2scnc2c1`, for which, in the series on MT4, the CC50 came to 134 µM. Also, the EC50 in series [1] stood at 23.7 µM. With `C#CCNC(=O)c1cccc(C(=O)N[C@@H](Cc2ccccc2)C(=O)N(C)c2ccc3scnc3c2)c1`, the Stability result in series [4] is “Stable”. Also, the EC50 in series [1] amounted to 5.02 µM. Compound `CN(C(=O)[C@H](Cc1ccccc1)NC(=O)c1cccc(C(=O)Nc2ccc(C#N)cc2)c1)c1ccc2scnc2c1` displayed a CC50 with MT4 above 224 µM. The concentration giving a half-maximal response (EC50) in series [1] turned out to be 13.2 µM. As to `CN(C(=O)[C@H](Cc1ccccc1)NC(=O)c1cccc(C(=O)Nc2cccc(NC(=O)OC(C)(C)C)c2)c1)c1ccc2scnc2c1`, the CC50 in the series with MT4 was above 193 µM. Also, the EC50 in series [1] is above 193 µM. As for `Cc1ccc(NC(=O)c2cccc(C(=O)N[C@@H](Cc3ccccc3)C(=O)N(C)c3ccc4scnc4c3)c2)cc1`, the CC50 with MT4 is above 228 µM. Further, the 50% effective concentration (EC50) in series [1] came to 41.1 µM. Taken in the same sequence, the figures for `CN(C(=O)[C@H](Cc1ccccc1)NC(=O)c1cccc(C(=O)Nc2ccc(F)cc2)c1)c1ccc2scnc2c1` were 54 µM and 31.8 µM. As to `C[C@]12CC[C@H]3[C@@H](CCC4=CC(=O)CC[C@@]43C)[C@@H]1CC[C@@H]2O` [TESTOSTERONE], the microsomal CLint (commonly the capacity of the preparation to metabolise the compound, expressed as a volume cleared per time) in the series “in vitro” was 82.8 µL/min/mg. Consider `CN(C(=O)[C@H](Cc1ccccc1)NC(=O)c1cccc(C(=O)Nc2ccc(Cl)cc2)c1)c1ccc2scnc2c1`, for which the cytotoxic concentration (CC50) in the series with MT4 was above 220 µM. Also, in series [1], the half-maximal effective concentration (EC50) is above 220 µM. For the compound `CN(C(=O)[C@H](Cc1ccccc1)NC(=O)c1cccc(C(=O)Nc2ccc(NC(=O)OC(C)(C)C)cc2)c1)c1ccc2scnc2c1`, half-maximal cytotoxicity in the series on MT4 (CC50) was put at 2.23 µM. Besides, in series [1], the concentration giving a half-maximal response (EC50) was above 2.23 µM. On to `CN(C(=O)[C@H](Cc1ccccc1)NC(=O)c1cccc(C(=O)Nc2ccncc2)c1)c1ccc2scnc2c1`, for which half-maximal cytotoxicity in the series on MT4 (CC50) was put at 37.6 µM. Moreover, the EC50 in series [1] was at least 41.4 µM. Regarding `CC(=O)c1ccc(NC(=O)c2cccc(C(=O)N[C@@H](Cc3ccccc3)C(=O)N(C)c3ccc4scnc4c3)c2)cc1`, in the series on MT4, the midpoint of cytotoxicity, the CC50, lay at 165 µM. Further, the EC50 in series [1] was above 165 µM.

In the series on MT4, `COCCNC(=O)c1cccc(C(=O)N[C@@H](Cc2ccccc2)C(=O)N(C)c2ccc3scnc3c2)c1` gave a 50% cytotoxic concentration (CC50) of 203 µM. Also, in series [1], the 50% effective concentration (EC50) worked out at 15.7 µM.

In the case of `CN(C(=O)[C@H](Cc1ccccc1)NC(=O)c1cccc(C(=O)NC2CCN(C(=O)OC(C)(C)C)CC2)c1)c1ccc2scnc2c1`, the midpoint of cytotoxicity in the series on MT4, the CC50, lay at 29.3 µM. The concentration giving a half-maximal response (EC50) in series [1] was above 29.3 µM.

Compound `CN(C(=O)[C@H](Cc1ccccc1)NC(=O)c1cccc(C(=O)Nc2ccccc2)c1)c1ccc2scnc2c1` returned a CC50 in the series on MT4 above 234 µM. In series [1], the EC50 is 22.4 µM.

On to `O=C(O)Cc1ccccc1Nc1c(Cl)cccc1Cl` [DICLOFENAC], for which the intrinsic metabolic clearance (microsomal CLint) in the series “in vitro” turned out to be 372 µL/min/mg.

The values above are taken from ChEMBL document CHEMBL5131381, “Design, synthesis, and mechanistic investigations of phenylalanine derivatives containing a benzothiazole moiety as HIV-1 capsid inhibitors with improved metabolic stability” (Eur J Med Chem, 2022).
